Reference: patent US8524304B2, “High-potency sweetener composition with probiotics/prebiotics and compositions sweetened therewith” (The Coca-Cola Company, priority 2005, dated 2013)

Legend:
[1] = Sensory evaluation of sweetness linger by a panel of experts; type: in vivo; set-up: key: 0: no sweetness linger; 1: very slight sweetness linger; 2: slight sweetness linger; 3: moderate sweetness linger; 4: moderately high sweetness linger; 5: high sweetness linger; settings: scale 0-5
Experimental: Sensory evaluation of the samples prepared in Example Set G was carried out under the following protocol, similar to that described hereinabove. In this test protocol, none of the samples were swallowed. All samples were expectorated and the mouth was rinsed with water after the tasting. Immediately upon sensing maximal sweetness, the sample was expectorated, the mouth was rinsed with water and the rate of sweetness decay (“Sweetness Linger”) was measured, where attention was focused on the sweetness 3-4 min after the water rinse. After sample tasting was complete, a salty oyster cracker was chewed followed by a water rinse, and at least 5 minutes followed before tasting the next sample. The sweetness linger was rated by a panel of experts in the sensory evaluation of foods and beverages using the following scale: 0=no sweetness linger, 1=very slight sweetness linger, 2=slight sweetness linger, 3=moderate sweetness linger, 4=moderately high sweetness linger, 5=high sweetness linger.
The “Sweetness Linger” rating for sucrose observed by this protocol is defined as 0. The Sweetness Linger of a 500 ppm of REBA control sample is defined as 5. Experimental samples were tasted by the same protocol, always allowing sufficient time between samples to ensure re-equilibration of the sensory system. Re-tasting of control samples during the course of the experiment was allowed and encouraged. […]
Sweet taste improving compositions were combined with a REBA solution to determine their effect on sweetness linger, Screening of the initial sample, or further dilutions, allowed identification of concentrations which were just above-threshold, herein defined as “near-threshold concentrations.” The near-threshold additive concentrations, a 6- to 100-fold higher higher additive concentration (depending on the off-taste intensity), and a mid-level additive concentration (halfway between the near-threshold and higher additive concentration) were evaluated to determine the effect on sweetness linger of a REBA solution. […]

[2] = Rate of dissolution of rebaudioside A polymorph and amorphous forms in H2O at 25° C.; type: physicochemical
[3] = type: physicochemical
Experimental: A solution of rebaudioside A (>97% pure by HPLC ) was prepared in double distilled water (12.5 gm in 50 mL, 25% concentration) by stirring the mixture at 40° C. for 5 minutes. An amorphous form of rebaudioside A was formed by immediately using the clear solution for spray drying with the Lab-Plant spray drier SD-04 instrument (Lab-Plant Ltd., West Yorkshire, U.K.). The solution was fed through the feed pump into the nozzle atomizer which atomized it into a spray of droplets with the help of a constant flow of nitrogen/air. […] This dry powder (11-12 g, H2O 6.74%) was discharged continuously from the drying chamber and was collected in a bottle.

Rate of dissolution in H2O at 25° C. [2]	solubility in water at room temperature [3] [%]	SMILES	sweetness linger ([1]; Example Set G: citric acid/potassium citrate composition equivalent to a diet lemon-lime beverage, 400 ppm REBA base, sweetness 3-4 min after water rinse)	sweetness linger ([1]; Example Set H: carbon-treated water with phosphoric acid (75%) to pH 2.4-2.5, 500 ppm REBA base)	Sweetness Linger rating ([1]; control ratings defined for the protocol)
		C=C1C[C@@]23CC[C@H]4[C@@](C)(CCC[C@@]4(C)C(=O)O[C@@H]4O[C@H](CO)[C@@H](O)[C@H](O)[C@H]4O)[C@@H]2CC[C@]1(O[C@@H]1O[C@H](CO)[C@@H](O)[C@H](O[C@@H]2O[C@H](CO)[C@@H](O)[C@H](O)[C@H]2O)[C@H]1O[C@@H]1O[C@H](CO)[C@@H](O)[C@H](O)[C@H]1O)C3 [REBA, rebaudioside A]	5	5	5
High (>35%/5 %/5 minutes	> 35.0	C=C1C[C@@]23CC[C@H]4[C@@](C)(CCC[C@@]4(C)C(=O)O[C@@H]4O[C@H](CO)[C@@H](O)[C@H](O)[C@H]4O)[C@@H]2CC[C@]1(O[C@@H]1O[C@H](CO)[C@@H](O)[C@H](O[C@@H]2O[C@H](CO)[C@@H](O)[C@H](O)[C@H]2O)[C@H]1O[C@@H]1O[C@H](CO)[C@@H](O)[C@H](O)[C@H]1O)C3 [Form 4, rebaudioside A]			
